Source: US20250049750A1, “MALTODEXTRIN FORMULATIONS” (Amazentis SA, priority 2023, published 2025)

Test: Phase II single-dose oral pharmacokinetic study of urolithin A in a maltodextrin formulation
Format: in vivo
Conditions: human, n = 12
Method: A phase II clinical study was carried out to determine the bioavailability of urolithin A when dosed in a formulation containing maltodextrin to human subjects.
In particular, the pharmacokinetic parameters of the compound were investigated in an open-label, parallel-arm, randomized, single-period, single-dose pharmacokinetic study. Subject enrolled where healthy volunteers, both males and females aged between 18 and 45 years. Formulation details and clinical study procedures are described in the method section below.
Subjects were administered orally as a single dose with a maltodextrin formulation (Table 2). The formulations was administered to deliver a total dose of 500 mg Urolithin A per dosing. Plasma samples were collected pre-dosing and at sequential time points after dosing, i.e. 1 hr, 4 hrs, 6 hrs, 8 hrs, 12 hrs, 24 hrs, 72 hrs. Plasma levels of parent Urolithin A were determined and expressed as pg/ml.
A total of 24 participants were enrolled in the study (12 subject per group). Subjects were healthy male and female participants. Subjects were selected after a screening to meet all the following criteria aged between 18 and 45 years; with Body Mass Index (BMI) between 18.50-30.00 kg/m2;
Maltodextrin formulation (urolithin A Powder with Maltodextrin): half a scoop (1.5 g) of powder, containing 500 mg of Urolithin A. Composition is described in Table 2.
Mode of Administration: Participants take the powder orally on an empty stomach in a sitting position, after an overnight fast. The powder was mixed with 240±2 mL of milk, shaken well, and consumed. It was ensured that all liquid was swallowed without leaving any residue behind or retaining in the mouth.
This study was an open-label, parallel-arm, single-period, single-dose, randomized study wherein each participant received a single dose of allocated investigational product administered orally to the trial participants in a sitting posture. The formulation was administered with about 240 mL of whole milk (3% fat content) in a sitting posture.
PK blood samples were collected at pre-dose and post-dose at 1 hr, 4 hrs, 6 hrs, 8 hrs, 12 hrs, 24 hrs, 72 hrs. PK blood samples were collected by direct vein puncture or using a venous cannula. When multiple blood sample collection were scheduled on the same day from the same participant, at the discretion of the investigator, a venous cannula was inserted and blood samples collected from the cannula to avoid multiple pricks. For the same, an intravenous (IV) cannula was placed in a forearm vein or dorsal aspect of the hand of the participants. Intravenous indwelling cannula kept in situ as long as required by injecting 0.3 mL of normal saline or heparinized saline (to prevent the cannula from clogging). Because the cannula contains stagnant blood and normal or heparinized saline, it was […] before collection of the pharmacokinetic blood sample, for the same, 0.3 mL (or as appropriate depending upon the size and length of the cannula) of normal saline/heparinized saline diluted blood was discarded prior to collection of the next PK sample. […] All PK blood samples was collected or transferred (in case if collected in a syringe) in K2-EDTA blood collection tubes.
After collection, the PK blood samples were centrifuged at 4000 RPM at 4° C.±2° C. for 10 minutes. The plasma was separated and transferred to labeled polypropylene tubes and stored in a freezer at −80° C.±10° C. Pharmacokinetics parameters of Urolithin A were calculated from the concentration Vs. time data using Phoenix@WinNonlin® professional software (Version 8.1.1 or higher) (Certara, Princeton, New Jersey, USA).

- Urolithin concentrations in blood, Mean (Pre-dose, plasma parent Urolithin A): 1.00 pg/mL
- concentration at 1 h (both sexes, 1 h after single oral 500 mg Urolithin A in maltodextrin formulation, plasma, read-out: Urolithin concentrations in blood, Mean): 0.551 ng/mL
- concentration at 4 h (both sexes, 4 h after single oral 500 mg Urolithin A in maltodextrin formulation, plasma, read-out: Urolithin concentrations in blood, Mean): 1.07 ng/mL
- concentration at 6 h (both sexes, 6 h after single oral 500 mg Urolithin A in maltodextrin formulation, plasma, read-out: Urolithin concentrations in blood, Mean): 1.4 ng/mL
- concentration at 8 h (both sexes, 8 h after single oral 500 mg Urolithin A in maltodextrin formulation, plasma, read-out: Urolithin concentrations in blood, Mean): 0.775 ng/mL
- concentration at 12 h (both sexes, 12 h after single oral 500 mg Urolithin A in maltodextrin formulation, plasma, read-out: Urolithin concentrations in blood, Mean): 0.72 ng/mL
- concentration at 24 h (both sexes, 24 h after single oral 500 mg Urolithin A in maltodextrin formulation, plasma, read-out: Urolithin concentrations in blood, Mean): 0.404 ng/mL
- concentration at 72 h (both sexes, 72 h after single oral 500 mg Urolithin A in maltodextrin formulation, plasma, read-out: Urolithin concentrations in blood, Mean): 0.167 ng/mL
Compound: O=c1oc2cc(O)ccc2c2ccc(O)cc12 [Urolithin A]
